Values joined by “and” are separate entries in the source; they are usually repeats but may differ in a detail not shown here. Identical values can stand only once. Like-named read-outs stand apart in the source and are kept apart here. Marks after values point to notes of the source that are not given here.
Assays:
EPIDERM skin culture [1] = experiment: MTT viability assay on EPIDERM skin culture after test composition + insult
Text: (§1) The MTT dye is taken up by the cells. The reduction of the dye as a result of cellular metabolism can be used to measure the cytotoxicity of the test compositions. In order to confirm viability, inserts of the EPIDERM skin culture that have already been subjected to the test compositions and biological insults are removed from their media and are washed consecutively through immersion in three different beakers of PBS. Fresh PBS is used for each test composition or control being evaluated. The PBS is discarded onto paper towel. The EPIDERM skin culture inserts are then patted onto paper towel and placed into the wells of a 24 well plate containing 300 microliters of pre-warmed media. After all of the EPIDERM skin culture inserts are washed, they are transferred to new 24 well plates containing 300 microliters of the MTT reagent. The MTT reagent is thiazolyl blue having the formula 3-[4,5-Dimethylthiazol-2-yl]-2,5-diphenyltetrzoliumbromide. The plates are incubated for 2 hours in a 37° C., 5% CO2 incubator. After incubation, the EPIDERM skin culture inserts are transferred to 24 well plates and are immersed in 2 milliliters of MTT extraction buffer. The extraction buffer extracts the MTT reagent from the cells. The 24 well plates are parafilmed, covered and placed in ZIPLOCK bags to reduce evaporation of the extraction buffer. The covered plates are rocked overnight in the dark. Following overnight rocking, the liquid in the EPIDERM skin culture inserts is decanted back into the wells. The contents of each well are mixed and a 200 microliter aliquot is then removed from each well and transferred to a 96 well plate. The optical density (OD) of the samples is measured at 570 nm using a spectrophotometer. Five hundred seventy nanometers is the optimal wavelength at which to measure the reduced form of MTT reagent. This reading is subtracted from a background reading at 650 nm to improve data quality. Percent viability of each test composition+insult relative to the control+PBS is recorded as the Mean ODtest composition+insult divided by the Mean ODcontrol+PBS; the quotient then multiplied by 100.

[2] = biological target: T1, porcine pancreatic trypsin (Sus scrofa, UniProt P00761); experiment: Trypsin inhibition in solution with BAPNA chromogenic substrate; assay type: biochemical; conditions: for Trypsin Inhibition (IC50): solid form dissolved in PBS
T1 construct: purchased Sigma Chemical of St. Louis, Mo; host or cells: pancreas (porcine)
Procedure: More specifically, compositions of the invention were evaluated for their inhibitory effect on porcine pancreatic trypsin in solution. Porcine pancreatic trypsin from Sigma Chemical of St. Louis, Mo. was prepared at a concentration of 1600 ng/ml in 100 mM Tris-HCL pH 8.0-buffer. Twenty-five microliters of the porcine pancreatic trypsin was added to the wells of a NUNC IMMUNO clear 96 well plate. The wells also contained 150 µl of 100 mM Tris-HCL pH 8.0 buffer and 25 µl of a test composition diluted as necessary in PBS. After a fifteen minute incubation at room temperature, the reaction is initiated by adding 50 µl of a 5 mM solution of chromogenic trypsin substrate (N-benzyl-arginine-p-nitroanalide (BAPNA)) to each of the wells. The BAPNA is prepared at 50 mM in neat dimethylsulfoxide and diluted in water to a 5mM working stock solution. In order to measure the progress of the reactions, optical density measurements were taken at 405 nm every 20 seconds (after a two minute delay) for 10 minutes with a THERMOMAX Microplate Reader (Molecular Devices, Sunnyvale, Calif.). […] Below. The IC50 value is based on a dilution of the liquid stock botanical. The actual concentration of the botanical/salt compositions is not known except for those compositions available in solid form. For the solid forms, stock concentrations in PBS can be accurately made up.

interleukin-1 alpha [3] = experiment: EPIDERM skin culture irritation test, fecal protease (trypsin-chymotrypsin) insult, IL-1 alpha release; assay type: cell-based, human
Procedure: In order to evaluate the efficacy of the compositions of the invention, a human skin culture was selected to model the response of the human epidermis. EPIDERM skin culture is a cornified, air-interfaced human skin culture. EPIDERM skin culture has multiple layers of progressively differentiated keratinocytes resembling human epidermis. EPIDERM EPI-200 skin culture can be purchased from MatTek Corporation of Ashland, Mass. Experiments using EPIDERM skin culture are conducted in six well plates. Typically, five EPIDERM skin culture inserts are added to five of the six wells. Each well contains one milliliter of pre-warmed media that is the same as the EPIDERM skin culture media. The plates are then incubated in a 37° C., 5% CO2 incubator for thirty minutes. After incubation, 15 microliters of test composition or control are applied to the surface of the EPIDERM skin culture after removing any residual media. The well plates, with the test compositions/control applied, are incubated in the 37° C., 5% CO2 incubator for thirty minutes after which the underlying media is removed and replaced with fresh, pre-warmed media. Next, ten microliters of insult solution, either fecal protease or bile acid, are applied to the surface of the EPIDERM skin culture.
The insult solution is prepared by diluting a 10 mg/ml stock solution in phosphate-buffered saline to a working concentration of 250 µg/ml. The base of the stock solution is 50 mM NaOAcetate, pH 5.5 and 0.15 M NaCl stored at −80° C. […] The bile acid insult solution can be prepared by dissolving 65 mg of cholic acid, 62 mg of deoxycholic acid and 31 mg of chenodeoxycholic acid in 10 ml of phosphate-buffered saline. The bile acid insult components can be purchased from Sigma Chemical Co. of St. Louis, Mo. Phosphate-buffered saline, pH 7.4 (hereinafter “PBS”) can be purchased from Life Technologies of Rockville, Md.
For internal studies, infant feces were collected and the amount of total protease and trypsin activities determined for each of the fecal extracts. To prepare the extract, the feces were suspended in water and vigorously vortexed. After vortexing, the samples were held on ice prior to centrifugation at 15,000 times the force of gravity for 20 minutes. The supernatant was filtered through 0.22 micron cellulose acetate filters and stored at −80° C. until use.
After application of the insult solution, the well plates are incubated for six hours in the 37° C., 5% CO2 incubator. At the end of six hours, the well plates are removed from the incubator, the underlying media is removed and stored at −80° C. The response of the EPIDERM skin culture to the test compositions/control and the insult solution is determined by measuring the amount of interleukin-1 alpha (hereinafter “IL-1”). Interleukin-1 alpha can be quantified using an Interleukin-1 alpha Quantikine Kit available from R&D Systems of Minneapolis, Minn. Interleukin-1 alpha measurements are converted to Log10 for each of the treatments and the averages for each treatment are calculated. In order to determine the ability of the test compositions to reduce skin irritation caused by the biological insults, the percent mean reduction of IL-1 is calculated as follows: [formula]
EPIDERM skin culture studies were conducted to measure the reduction in IL-1 response between compositions of the invention and a fecal protease-induced irritation. The studies were conducted using botanicals that are representative of the invention.

interleukin-1 alpha [4] = experiment: EPIDERM skin culture irritation test, protease and bile acid insult, IL-1 alpha release; assay type: cell-based, human; conditions: 4 mg/ml in water, 30 minutes pretreatment; protease and bile acid insult 6 hours; sample size six
Procedure: An additional set of EPIDERM skin culture experiments was conducted to predict the effect of extracted botanical actives on the irritation response to a protease and bile acid insult. The method for utilizing the EPIDERM skin culture described above was also used for this set of experiments evaluating response to a protease and bile acid insult. The EPIDERM skin culture was pretreated with 15 l of test composition containing 4 mg/ml of epigallocatecin gallate in water for a period of 30 minutes in a 37° C./5% CO2 incubator. The skin culture wells were then treated with 10 µl of a protease and bile acid insult for 6 hours under the same incubation conditions. Phosphate-buffered saline solution of pH 7.4 was used as a negative control. After 6 hours, the underlying media is removed and stored at -80° C. The amount of IL-1 from the media was quantified using an Interleukin-1 alpha Quantikine Kit available from R&D Systems of Minneapolis, Minn. The protease and bile acid insult was prepared by mixing equal volumes of a bile acid insult with a protease insult. The bile acid insult included 13 mg/ml cholic acid (sodium salt), 12.4 mg/ml deoxycholic acid (sodium salt) and 6.2 mg/ml chenodeoxycholic acid (sodium salt) prepared in pH 7.4 phosphate-buffered saline. […]

EPIDERM skin culture [5] = conditions: human, 4 mg/ml
Text: as §1

[6] = 4 mg/ml in PBS, trypsin-chymotrypsin insult (Table 3)

T1 sequence (P00761 9-231): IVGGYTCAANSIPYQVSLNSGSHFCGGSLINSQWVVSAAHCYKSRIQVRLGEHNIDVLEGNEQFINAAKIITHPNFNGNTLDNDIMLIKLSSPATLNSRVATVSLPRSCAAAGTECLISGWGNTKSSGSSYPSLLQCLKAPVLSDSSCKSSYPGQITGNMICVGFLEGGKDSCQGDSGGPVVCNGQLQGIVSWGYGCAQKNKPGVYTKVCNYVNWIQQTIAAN

Row | Structure (SMILES) | Viability (percentage) (EPIDERM skin culture [1]; [6]) [%] | Trypsin Inhibition (IC50) [2] | Mean Reduction of Interleukin-1 Alpha (percentage) (interleukin-1 alpha [3]; [6]) | further results
1 | O=C(O[C@@H]1Cc2c(O)cc(O)cc2O[C@@H]1c1cc(O)c(O)c(O)c1)c1cc(O)c(O)c(O)c1 [Epigallocatechin gallate] | 126 | 0.00002% (w/v) | – | Viability (percentage) (EPIDERM skin culture [1]; 0.4% (w/v) in PBS + protease insult, relative to control + PBS): 103% and 101% and 112%; reduction of trypsin activity in solution (in words) ([2]; conclusion from Table 5): effective at reducing trypsin activity in solution; Mean Reduction of Interleukin-1 Alpha (percentage) (interleukin-1 alpha [3]; 0.4% (w/v) in PBS, fecal protease insult 6 hours, one value per set of experiments): 77% and 71% and 50%; IL-1 reduction (interleukin-1 alpha [4]): 28%
2 | Oc1cc(O)c2c(c1)O[C@H](c1cc(O)c(O)c(O)c1)[C@H](O)C2 [Epigallocatechin] | – | – | 30% (5) | Viability (percentage) (EPIDERM skin culture [5]): 125%
3 | Oc1cc(O)c2c(c1)O[C@H](c1ccc(O)c(O)c1)[C@H](O)C2 [Epicatechin] | 111 | – | 24% (5) | –
4 | [Cl-].[Cl-].[Sr+2] [Strontium Chloride] | – | >0.5% (w/v) | – | Mean Reduction of Interleukin-1 Alpha (percentage) (interleukin-1 alpha [3]; 1% in PBS, fecal protease insult 6 hours, one value per set of experiments): 0% (10); Mean Reduction of Interleukin-1 Alpha (percentage) (interleukin-1 alpha [3]; 10% in PBS, fecal protease insult 6 hours, one value per set of experiments): 15% (10)
5 | O=C(O[C@@H]1Cc2c(O)cc(O)cc2O[C@@H]1c1ccc(O)c(O)c1)c1cc(O)c(O)c(O)c1 [Epicatechin gallate] | 143 | – | 62% (5)* | –

From patent US20020120242A1, “Absorbent articles with hydrophilic compositions containing botanicals” (priority 2000, published 2002)
